US11078194B2, “Salt form and crystal form serving as FGFR and VEGFR inhibitor compounds, and preparation method therefor” (HARBIN ZHENBAO PHARMACEUTICAL CO., LTD., priority 2017, dated 2021)

Experiment: Solid stability test of crystal form G, crystal form I and crystal form J (HPLC content, total impurities, XRPD, appearance)
Type: physicochemical
Description: About 10 mg of crystal form G, crystal form I, or crystal form J were weighed accurately, and placed on the bottom of a 40 mL glass sample bottle and spread into a thin layer. For an open sample, the bottle mouth thereof was sealed with aluminum foil poked with pinholes to ensure that the sample can fully contact with the ambient air. For a sealed sample, the bottle mouth thereof was sealed with a bottle cap, and wrapped with a sealing film. Two duplicate samples were weighed at each time point of each condition in parallel, and an appropriate amount of sample (not weighed) was taken additionally for XRPD detection. The prepared samples were placed under each condition and were sampled and analyzed when the time point was arrived. On 0th day, 5 control samples were weighed in parallel and stored in a refrigerator at −20° C. until analysis. The samples subjected to light irradiation were prepared by the same method, and placed on the bottom of a 40 mL glass sample bottle. The glass bottle was left open and placed in the upright position in a light irradiation box. In addition, two samples in an appropriate amount were taken as samples in dark, and the glass bottles containing the same were left open, put in the upright position, and wrapped with tin foil, and irradiated with a total luminance of 1.2×10^6Lux.hr and a near ultraviolet power of 200 w.hr/m^2. After irradiation, the samples was stored in the refrigerator at −20° C. for analysis.
The compounds were placed under the following conditions and sampled at different time points to detect the physical properties, and the content and total impurities were analyzed by HPLC.

[1] = Accelerated test (40° C./relative humidity 75%, open), 1st month
[2] = Accelerated test (40° C./relative humidity 75%, open), 2nd month
[3] = Accelerated test (40° C./relative humidity 75%, open), 3rd month
[4] = Accelerated test (40° C./relative humidity 75%, open), 10th day
[5] = Accelerated test (60° C./relative humidity 75%, open), 1st month
[6] = Accelerated test (60° C./relative humidity 75%, open), 2nd month
[7] = Accelerated test (60° C./relative humidity 75%, open), 3rd month
[8] = Accelerated test (60° C./relative humidity 75%, open), 10th day
[9] = High humidity (Room temperature/relative humidity 92.5%, open), 5th day
[10] = High humidity (Room temperature/relative humidity 92.5%, open), 10th day
[11] = High temperature (60° C., open), 5th day
[12] = High temperature (60° C., open), 10th day
[13] = Light irradiation (1.2 × 10^6 Lux·hr, near ultraviolet 200 w·hr/m^2, open), irradiated sample
[14] = Light irradiation test, Dark sample

SMILES: C[C@@H](Oc1ccc2[nH]nc(/C=C(\F)c3ccc(CNC4CCOCC4)nc3)c2c1)c1c(Cl)cncc1Cl [crystal form G]
- Appearance (0th day): Earth yellow
- Content (%) (0th day): 100%
- Crystal form (XRPD) (0th day): form G
- Total impurities (%) (0th day): 0.11%
- Appearance [1]: Earth yellow
- Content (%) [1]: 102.45%
- Crystal form (XRPD) [1]: form G
- Total impurities (%) [1]: 0.16%
- Appearance [2]: Earth yellow
- Content (%) [2]: 101.07%
- Crystal form (XRPD) [2]: form G
- Total impurities (%) [2]: 0.17%
- Appearance [3]: Earth yellow
- Content (%) [3]: 98.81%
- Crystal form (XRPD) [3]: form G
- Total impurities (%) [3]: 0.18%
- Appearance [4]: Earth yellow
- Content (%) [4]: 99.97%
- Crystal form (XRPD) [4]: form G
- Total impurities (%) [4]: 0.11%
- Appearance [5]: Earth yellow
- Content (%) [5]: 101.51%
- Crystal form (XRPD) [5]: form G
- Total impurities (%) [5]: 0.17%
- Appearance [6]: Earth yellow
- Content (%) [6]: 99.86%
- Crystal form (XRPD) [6]: form G
- Total impurities (%) [6]: 0.18%
- Appearance [7]: Earth yellow
- Content (%) [7]: 100.21%
- Crystal form (XRPD) [7]: form G
- Total impurities (%) [7]: 0.19%
- Appearance [8]: Earth yellow
- Content (%) [8]: 98.38%
- Crystal form (XRPD) [8]: form G
- Total impurities (%) [8]: 0.15%
- Appearance [9]: Earth yellow
- Content (%) [9]: 100.82%
- Crystal form (XRPD) [9]: form G
- Total impurities (%) [9]: 0.11%
- Appearance [10]: Earth yellow
- Content (%) [10]: 98.79%
- Crystal form (XRPD) [10]: form G
- Total impurities (%) [10]: 0.11%
- Appearance [11]: Earth yellow
- Content (%) [11]: 102.02%
- Crystal form (XRPD) [11]: form G
- Total impurities (%) [11]: 0.16%
- Appearance [12]: Earth yellow
- Content (%) [12]: 100.14%
- Crystal form (XRPD) [12]: form G
- Total impurities (%) [12]: 0.16%
- Appearance [13]: Earth yellow
- Content (%) [13]: 102.93%
- Crystal form (XRPD) [13]: form G
- Total impurities (%) [13]: 0.37%
- Appearance [14]: Earth yellow
- Content (%) [14]: 101.69%
- Crystal form (XRPD) [14]: form G
- Total impurities (%) [14]: 0.11%
- thermal stability and stability under accelerated conditions (conclusion of influencing factors and accelerated tests): excellent
- stability under dark conditions (dark): good stability
- impurities generated under light irradiation conditions (light irradiation): slight impurities
